From patent publication US20240295566A1, “METHOD FOR DIAGNOSING AND TREATING METABOLIC DISORDERS” (Centre for Chinese Herbal Medicine Drug Development Limited, priority 2023, published 2024)
One block for each compound: values may come before it.

Tests used:
[1] = test system: insulin-induced AKT phosphorylation; assay: Western blot of insulin signaling (AKT phosphorylation) in 3T3-L1 cells; format: cell-based; conditions: insulin 20 nM; for inhibitory effects of tryptamine and phenethylamine on insulin-stimulated AKT phosphorylation / insulin-induced AKT phosphorylation: 3T3-L1 cells; for inhibitory effects of tryptamine and phenethylamine on insulin-stimulated AKT phosphorylation: tryptamine or phenethylamine 25 μM, inhibitor 20 μM; for insulin-induced AKT phosphorylation: precursors and metabolites at 100 μM; for insulin signaling: 3T3-L1 adipocytes, 25 μM
Experimental: (§1) For the glucose uptake assay, 3T3-L1 cells were serum- and glucose-starved for 3 hours and then incubated with glucose, FBS, insulin and tryptamine for 30 min as indicated. To assess the effect of tryptamine on insulin signaling, 3T3-L1 cells were pre-treated with or without tryptamine, ERK inhibitor or TAAR1 antagonist EPPTB, and then treated with insulin at the indicated concentration. The effect of IAA on insulin signaling was evaluated by treating 3T3-L1 cells with or without IAA followed by insulin for the indicated times. Tryptamine, U0126 and EPPTB were dissolved in DMSO at 100 mM as a stock solution. For cAMP measurements, 3T3-L1 cells were pre-treated with or without EPPTB for 60 min and then treated with tryptamine for the indicated times.
(§2) Frozen tissues and harvested cells were lysed in RIPA buffer with a protease inhibitor cocktail. For western blotting, the cell lysates and tissue lysates were centrifuged at 15,000 rpm for 15 min at 4° C. The supernatant was mixed with 5× loading buffer and heated at 98° C. on a dry bath for 10 min. The target proteins were then detected in the samples as per manufacturer instructions. The blots were incubated with HRP-linked anti-rabbit IgG or anti-mouse IgG and reacted with enhanced chemiluminescence. The quantification of protein bands from western blots was analyzed using Image J.

[2] = Oral glucose tolerance test (OGTT) in mice; format: in vivo, mouse; conditions: for glucose tolerance in control mice (OGTT): control mice without tryptamine, inhibitor alone; for tryptamine-induced glucose intolerance (OGTT): tryptamine (10 mg/kg)-treated mice plus inhibitor i.p. (U0126 20 mg/kg, PD98059 10 mg/kg, EPPTB 10 mg/kg); for glucose tolerance (OGTT): normal mice, substance given alone (tryptamine 0.4, 2, 10 mg/kg; phenethylamine 1, 2, 5 mg/kg i.p.)
Experimental: (§3) For the oral glucose tolerance test (OGTT), mice were fasted for 12 hours (overnight) and administered with tryptamine, ERK inhibitors, TAAR1 antagonist or IAA at indicated dosages. After 30 min, mice were given glucose at a dosage of 2 g/kg. Blood samples were collected from the tail vein for glucose measurement using Accu-Chek glucose meters at 0, 15, 30, 60, 90 and 120 min after the glucose challenge. For the insulin tolerance test (ITT), mice were fasted for 4 hours and administered with tryptamine, ERK inhibitors or a TAAR1 antagonist at indicated dosages. After 30 min, insulin (1 U/kg) was injected intraperitoneally into the mice. Blood glucose levels were measured as per OGTT. For the measurement of serum insulin and TG, serum was collected 120 min after the mice were treated with tryptamine.

ERK1/2 phosphorylation [3] = assay: Western blot of ERK activation in WAT, liver and skeletal muscle lysates from mice; format: in vivo, mouse; conditions: for tryptamine-induced ERK phosphorylation in tissues: tryptamine 10 mg/kg plus inhibitor (U0126 20 mg/kg or EPPTB 10 mg/kg), WAT and liver lysates
Experimental: as §2

[4] = test system: insulin-induced Akt phosphorylation; assay: Western blot of insulin-stimulated AKT phosphorylation in WAT, liver and skeletal muscle lysates from mice; format: in vivo, mouse; conditions: insulin 1 U/kg; for inhibitory effects of tryptamine on insulin-stimulated AKT phosphorylation in tissues: tryptamine 10 mg/kg plus inhibitor (U0126 20 mg/kg or EPPTB 10 mg/kg), WAT and liver lysates; for insulin-induced Akt phosphorylation in major metabolic tissues: WAT, liver, skeletal muscle, tryptamine 10 mg/kg or phenethylamine 5 mg/kg i.p.
Experimental: as §2

[5] = Insulin tolerance test (ITT) in mice; format: in vivo, mouse; conditions: for insulin sensitivity in control mice (ITT): control mice without tryptamine, inhibitor alone; for tryptamine-induced insulin resistance (ITT): tryptamine (10 mg/kg)-treated mice plus inhibitor i.p. (U0126 20 mg/kg, PD98059 10 mg/kg, EPPTB 10 mg/kg); for insulin sensitivity (ITT): normal mice, substance given alone (tryptamine 0.4, 2, 10 mg/kg; phenethylamine 1, 2, 5 mg/kg i.p.)
Experimental: as §3

ERK1/2 phosphorylation [6] = assay: Western blot of ERK activation in 3T3-L1 cells; format: cell-based; conditions: for ERK phosphorylation induced by tryptamine and phenethylamine: tryptamine or phenethylamine 25 μM, pre-treatment with inhibitor 20 μM; for ERK1/2 phosphorylation: 25 μM
Experimental: as §1, with “3T3-L1 adipocytes (ATCC CL-173) were cultured and maintained in DMEM with 10% (v/v) FBS. For the” for “For the”
as §2

[7] = mouse, in vivo, 15 min
Experimental: (§4) Tryptamine at a dosage of 5 mg/kg (dissolved in 0.5% CMC-Na) was orally administered to mice. After 15 min, mice were euthanized by isoflurane and sacrificed by cervical dislocation. Serum, liver, skeletal muscle and WAT were collected and stored at −80° C. until analysis. About 80 mg of biological tissues were extracted with a 20× volume of 70% methanol (m/v) and then homogenized with steel beads. The samples were then centrifuged at 14,000 rpm at 4° C. for 15 min. About 200 μL of the supernatant was transferred to new tubes for LC-MS analysis.

Serum TG level in mice = format: in vivo, mouse; conditions: normal mice, i.p.
Experimental: as §3

3T3-L1 adipocytes = assay: Glucose uptake assay in 3T3-L1 cells; format: cell-based; conditions: 5, 10 and 25 μM
Experimental: as §1, with “3T3-L1 adipocytes (ATCC CL-173) were cultured and maintained in DMEM with 10% (v/v) FBS. For the” for “For the”

[8] = test system: insulin signaling-related proteins; assay: Phospho-proteomics study of mouse tissue; format: in vivo; conditions: mice, insulin-sensitive tissues (WAT), tryptamine treatment
Experimental: Mice were fasted for 4 hours and orally administered with tryptamine or vehicle. The WAT tissues were collected for the phosphoproteomics study. Mice tissue samples used for the TMT-labeled phosphoproteomics study were prepared as previously reported. An Easy nLC system (Thermo Fisher Scientific) with an Acclaim PepMap RSLC column (50 μm×15 cm) was used to separate the TMT-labelled peptides. The mobile phase used in LC-MS-Orbitrap was A: water with 0.1% formic acid and B: 80% acetonitrile, 20% water with 0.1% formic acid. The elution gradient was set as 0-5 min in 0-6% buffer B, 5-45 min in 6-28% buffer B, 45-50 min in 28%-38% buffer B, 50-55 min 38-100% buffer B and maintained during […] in 100% buffer B. The obtained MS/MS spectra were processed by Proteome Discoverer (Thermo Fisher Scientific) and searched using MASCOT engine 2.6. All protein sequences were aligned to the Mus musculus database downloaded from UniProt (http://www.uniprot.org). The proteins with a fold change>1.2 or <0.8 and a p-value<0.05 were considered as differentially expressed proteins.

[9] = Serum insulin level in monkeys; format: in vivo, Macaca fascicularis; conditions: normal monkeys, single dose 10 mg/kg via oral gavage
Experimental: The first crab-eating macaques (Macaca fascicularis) metabolomics study is performed with ethics approval (No. YMB1704) by Yunnan Yinmore Biotechnology company (Kunming, China). The diagnosis of diabetes for monkeys was based on published criteria. Specifically, age-matched (10-23 years old) monkeys were categorized as normal (Define as FBG<75 mg/dL and Hb1Ac<3.5%), pre-diabetes (FBG 80-130 mg/dL and Hb1Ac 4.0%-6.0%) and diabetes (FBG>130 mg/dL and Hb1Ac>6.0%) (n=26 for each group). Biological samples including serum and feces were collected and stored at −80° C. until analysis. The second crab-eating macaques (n=5) intervention study is performed with ethics approval (No. HZ2021047) by Huazhen Biosciences company (Guangzhou, China). Biochemical parameters including OGTT and serum insulin level were measured before and after tryptamine treatment. No crab-eating macaques were treated with anti-diabetic medication during these studies.
To understand the role of tryptamine and phenethylamine in the pathophysiology of insulin resistance, tryptamine and phenethylamine were administered to normal mice within the pathophysiological range detected in the fecal samples of T2D subjects. […]

[10] = Tissue distribution of tryptamine; conditions: mice, oral gavage of tryptamine 5 mg/kg, within 15 min
Experimental: as §4

[11] = Intravenous glucose tolerance test (IVGTT) in monkeys; format: in vivo, Macaca fascicularis; conditions: normal monkeys, single dose 10 mg/kg via oral gavage
[12] = antibiotics-treated mice colonized with R. gnavus ATCC 29149, EPPTB 10 mg/kg i.p.

SMILES: CCOc1cccc(NC(=O)c2ccc(N3CCCC3)c(C(F)(F)F)c2)c1 [EPPTB, N-(3-ethoxy-phenyl)-4-pyrrolidin-1-yl-3-trifluoromethyl-benzamide]
inhibitory effects of tryptamine and phenethylamine on insulin-stimulated AKT phosphorylation [1]: reversed the inhibitory effects
R. gnavus-induced impaired glucose tolerance (OGTT) [2, 12]: partially abrogated
glucose tolerance in control mice (OGTT) [2]: did not affect
tryptamine-induced glucose intolerance (OGTT) [2]: significantly reduced
tryptamine-induced ERK phosphorylation in tissues (ERK1/2 phosphorylation [3]): downregulated
inhibitory effects of tryptamine on insulin-stimulated AKT phosphorylation in tissues [4]: abolished the inhibitory effects
R. gnavus-induced lower insulin sensitivity (ITT) [5, 12]: partially abrogated
insulin sensitivity in control mice (ITT) [5]: did not affect
tryptamine-induced insulin resistance (ITT) [5]: significantly reduced
ERK phosphorylation induced by tryptamine and phenethylamine (ERK1/2 phosphorylation [6]): significantly downregulated

SMILES: COc1cccc(-c2cc(=O)c3ccccc3o2)c1N [PD98059]
glucose tolerance in control mice (OGTT) [2]: negligible effects
tryptamine-induced glucose intolerance (OGTT) [2]: significantly improved
insulin sensitivity in control mice (ITT) [5]: negligible effects
tryptamine-induced insulin resistance (ITT) [5]: significantly improved

SMILES: N#CC(=C(/N)Sc1ccccc1N)/C(C#N)=C(\N)Sc1ccccc1N [U0126]
inhibitory effects of tryptamine and phenethylamine on insulin-stimulated AKT phosphorylation [1]: significantly suppressed the inhibitory effects
glucose tolerance in control mice (OGTT) [2]: negligible effects
tryptamine-induced glucose intolerance (OGTT) [2]: significantly improved
tryptamine-induced ERK phosphorylation in tissues (ERK1/2 phosphorylation [3]): significantly downregulated
inhibitory effects of tryptamine on insulin-stimulated AKT phosphorylation in tissues [4]: abolished the inhibitory effects
insulin sensitivity in control mice (ITT) [5]: negligible effects
tryptamine-induced insulin resistance (ITT) [5]: significantly improved
ERK phosphorylation induced by tryptamine and phenethylamine (ERK1/2 phosphorylation [6]): blocked

IAA concentration relative to that of tryptamine in serum [7]: 40-100 fold
SMILES: O=C(O)Cc1c[nH]c2ccccc12 [indole-3-acetic acid]
insulin-induced AKT phosphorylation [1]: did not alter
glucose tolerance (OGTT) [2]: did not impair
insulin sensitivity (ITT) [5]: did not impair

SMILES: NCCc1ccccc1 [phenethylamine]
insulin signaling [1]: inhibited insulin signaling in a time-dependent manner
glucose tolerance (OGTT) [2]: remarkably inhibitory effects
insulin-induced Akt phosphorylation in major metabolic tissues [4]: significantly suppressed
serum TG levels (Serum TG level in mice): significant elevation
insulin sensitivity (ITT) [5]: remarkably inhibitory effects
ERK1/2 phosphorylation (ERK1/2 phosphorylation [6]): induced ERK1/2 phosphorylation in a time-dependent manner

SMILES: O=C(O)Cc1ccccc1 [phenylacetic acid]
insulin-induced AKT phosphorylation [1]: did not alter

SMILES: N[C@@H](Cc1ccccc1)C(=O)O [phenylalanine]
insulin-induced AKT phosphorylation [1]: did not alter

SMILES: NCCc1c[nH]c2ccccc12 [tryptamine]
basal glucose uptake (3T3-L1 adipocytes): inhibited basal glucose uptake in a dose-dependent manner
insulin signaling [1]: inhibited insulin signaling in a time-dependent manner
glucose tolerance (OGTT) [2]: remarkably inhibitory effects
insulin signaling-related phospho-proteins (HSL, ERK, SH3D5) [8]: upregulated
ERK1/2 phosphorylation in insulin-sensitive tissues (ERK1/2 phosphorylation [3]; tryptamine 10 mg/kg i.p., WAT, liver, skeletal muscle): upregulated
serum insulin levels [9]: significant elevation
insulin-induced Akt phosphorylation in major metabolic tissues [4]: significantly suppressed
serum TG levels (Serum TG level in mice): significant elevation
metabolite indole-3-acetic acid (IAA) levels in serum and insulin-sensitive tissues [10]: significantly increased
tryptamine levels in serum and insulin-sensitive tissues ([10]; serum, WAT, liver, skeletal muscle): significantly increased
blood glucose levels in the glucose challenge (IVGTT) [11]: higher blood glucose levels
insulin sensitivity (ITT) [5]: remarkably inhibitory effects
ERK1/2 phosphorylation (ERK1/2 phosphorylation [6]): induced ERK1/2 phosphorylation in a time-dependent manner

SMILES: N[C@@H](Cc1c[nH]c2ccccc12)C(=O)O [tryptophan]
insulin-induced AKT phosphorylation [1]: did not alter
